Experimental data taken from patent US20240285599A1, “Mature-Hepatocyte Transdifferentiation Suppressing Composition” (OSAKA UNIVERSITY, priority 2021, published 2024).

System: HuCCT1 cell xenograft
Test: Xenograft of NIK shRNA-introduced HuCCT1 cells in NOG mouse
Format: in vivo
Details: HuCCT1 cells with shRNA introduced by lentivirus
Experimental: A histopathological slide was deparaffinized with xylene and ethanol. HE staining was performed with hematoxylin and eosin. In immunostaining, antigen activation was performed by heating in Target Retrieval Solution (Dako, USA), followed by blocking with bovine serum albumin and a reaction through use of a primary antibody at 4° C. overnight. A frozen section was dried at room temperature, and was blocked with BSA (Nacalai Tesque, Inc., Japan), followed by a reaction through use of a primary antibody in VECTASTAIN ABC Rabbit IgG Kit (Vector Laboratories, Inc., USA). DAB Substrate Kit (Vector Laboratories, Inc., USA) was used in a staining reaction. […] The number of Ki67-positive cells in a tumor was counted with ImageJ (Fiji). The immunostaining score of TRAF3 or NIK was calculated by multiplying a staining intensity (of from 0 to 3) by a stained area (%). Human ICC patients were grouped into two groups on the basis of the median immunostaining score of TRAF3 or NIK, and were evaluated for their disease-free survival (DFS) or overall survival (OS). […]
Further, the HuCCT1 cells were infected with negative control shRNA or NIK shRNA by using a lentivirus, and the infected cells were selected with puromycin. […] The measurement of the diameters of the tumors of the mice was started 3 weeks after the transplantation, and their tumor volumes were measured by the same method as that described above. […]

## NIK shRNA: shRNA against NIK, SEQ ID NO: 1, introduced into HuCCT1 cells by a lentivirus (CCGGCUCAGGACUCACGUAGCAUUACUCGAGUAAUGCUACGUGAGUCCUGAGUUUUU)
FIG. 24B
  number of Ki67-positive cells in tumors versus negative control shRNA-introduced tumors: significantly lower
Measured from day 21 after transplantation, FIG. 24A
  growth of xenografts derived from the HuCCT1 cells (tumor size): significantly suppressed
